{"source": "patent US20040161757A1", "about": "“Use of acetyl-coa carboxylase for identifying compounds that have an insecticidal effect” (priority 2000, published 2004)", "tested_on": "peach aphid Myzus persicae", "assay": "Impairment of lipid neogenesis: 14C-acetate feeding by the sachet method, lipid extract separated by TLC", "assay_type": "in vivo", "description": "Peach aphid Myzus persicae larvae or adults were fed for two days with nutrient solutions with and without one of the identified ACCase inhibitors, using the sachet method (Nauen et al. 1996).\nThereafter, the animals were collected and homogenized in organic solvent using a pestle and mortar. The organic phase was cleansed of water-soluble constituents by repeatedly extracting it by shaking with aqueous solution, and the solvent was then evaporated. The pellet which remained was taken up in a little solvent and separated by thin-layer chromatography (TLC). The lipids which were separated were stained with amido black. ^14C-acetate which was incorporated into the lipids was detected by autoradiography after an exposure time of 2-3 days. To quantify the ^14C-incorporation into lipids, the bands in question were scraped out after staining, dissolved, and the activity was determined in a scintillation counter. […] Thus, no de novo lipid synthesis from acetate has taken place. […] It can be seen clearly that increasing inhibitor concentrations halt the de-novo lipid biosynthesis.\nThe mobile phase used for the TLC chromatography was n-hexane: diethyl ether: glacial acetic acid (60:45:1)."}
{"smiles": "COC1CCC2(CC1)NC(=O)C(c1c(C)cc(C)c(C)c1C)=C2O", "note": "(centres unmarked) [I-A, 4-hydroxy-8-methoxy-3-(2,3,4,6-tetramethylphenyl)-1-azaspiro[4,5]dec-32-en-2-one]", "values": [{"measurement": "radiolabeled 14C-acetate incorporated into lipids during de-novo synthesis (autoradiograph of TLC plate)", "setting": "fed for two days, exposure time 2-3 days, FIG. 1b, treated vs control aphids", "value": "no labeled lipids are present"}, {"measurement": "lipid composition and lipid content (lipid status after acetate feeding, TLC stained with amido black)", "setting": "larvae or adults fed for two days with nutrient solution with vs without active ingredient, FIG. 1a lanes 4-6 vs 1-3", "value": "No significant differences"}]}
